The source of these data is article PMC2820545, “Mechanistic Characterization and Molecular Modeling of Hepatitis B Virus Polymerase Resistance to Entecavir” (PLoS ONE, 2010).

Read-outs that look alike come from different tables or passages of the source.

Assay [1] relates to wildtype or ETVr HBV polymerase. As to the kind of experiment: Pyrophosphorolysis removal of incorporated ETV from HBV DNA. It counts as biochemical, hepatitis B virus. The following applies: wildtype or ETVr enzymes; data not shown. An excerpt: The inability of ETV to be proofread by HIV RT has been reported by Tchesnokov et al..
Assay [2] has as its system HBV clones with ETVr signature substitutions in a LVDr background. As to the kind of experiment: HBV cell culture susceptibility, ETVr clones as a group. The format is cell-based, hepatitis B virus. An excerpt:
The levels of ETVr observed in cell culture and in vitro enzymatic assays of representative clones with ETVr substitutions are shown in Table 1. […] High levels of ETVr were observed when HBV clones contained ETVr signature substitutions in a LVDr background both in vitro (>400-fold) and in culture (>200-fold), respectively (Table 1). A full analysis of the different ETVr substitutions in culture has been reported for engineered and clinical ETVr HBV isolates.
(§1) HepG2 cell culture susceptibility assays were performed in cells transfected with HBV expression plasmids and cultured in the presence of a titration of antiviral compounds, as described in detail elsewhere. The levels of replicated, released HBV virions was measured at day five through immunocapture of detergent released nucleocapsids with anti-HBV core Ab and quantification of encapsidated HBV DNA [5]. Data were plotted as percent inhibition and EC50 values calculated as the drug concentration where 50% inhibition of extracellular HBV occurred.

Assay [3] relates to LVDr HBV with M250V or M250L. As to the kind of experiment: HBV cell culture strand-specific EC50 determination. It counts as cell-based, hepatitis B virus. The following applies: strand-specific riboprobes. An excerpt: (§2) ETV inhibits HBV polymerase synthesis of DNA in vitro during both RNA-directed first (minus) strand synthesis as well as DNA-directed second (plus) strand synthesis. To determine if ETVr was influenced by the template for DNA synthesis, cell culture EC50 determinations were made using strand-specific riboprobes to hybridize to the synthesized HBV DNA, in parallel with the typical double-stranded DNA probe. In this way an ETV EC50 for each strand of DNA synthesis during the HBV cell culture was determined. […] The minus strand EC50 was similar to the EC50 obtained using the double-stranded DNA probe. These observations are consistent with M250 changes in the primer-grip region of HBV RT influencing ETVr at least in part through the template for DNA synthesis. An independent observation supported this hypothesis; resistance was seen using nucleocapsids prepared in our typical manner (Materials & Methods), isolated from cells grown in PFA to inhibit minus strand synthesis, enhancing the in vitro minus-strand synthesis activity of the preparations. […]
(§3) Figure 5 Analysis of ETVr through strand-specific DNA synthesis in culture. […] The levels of HBV DNA synthesized in the presence of ETV was determined by HBV-specific probe hybridization to HBV nucleocapsid DNA from the cultures. […]

In assay [4] the test system is wildtype, LVDr substituted and LVDr + T184 or S202 substituted HBV. Described as above. Conditions: strand-specific riboprobes, minus vs plus strand synthesis. It counts as cell-based, hepatitis B virus.
Text: as §2, §3

Assay [5] deals with Wildtype HBV. As to the kind of experiment: HBV cell culture susceptibility (HBV-transfected HepG2 cells). It counts as cell-based. Conditions: Hepatitis B virus. Here is the method: (§4) HepG2 human hepatoma cells (American Type Culture Collection) were maintained as described. The laboratory clone of HBV was the genotype D ayw serotype clone kindly provided by Dr. Steven Goff in the plasmid pCMV-HBV [41]. Plasmids expressing HBV RT with resistance substitutions were prepared using QuikChange® site-directed mutagenesis (Stratagene, LaJolla, CA).
as §1

Assay [6] concerns LVDr + S202G HBV. The assay is described as above. The following applies: Hepatitis B virus, averaged from 2 isolates, read-out: ETV EC50, Average ± SD (Range). It counts as cell-based. As to the method:
as §4, §1

In assay [7] the test system is LVDr + M250V HBV. The assay is described as above. The following applies: Hepatitis B virus, averaged from 2 isolates, read-out: ETV EC50, Average ± SD (Range). The format is cell-based. Here is the method:
as §4, §1

Assay [8] concerns LVDr + T184G + S202I HBV. The assay is described as above. It counts as cell-based. Conditions: Hepatitis B virus, single patient isolate, read-out: ETV EC50, Average ± SD (Range). Here is the method: as §4, §1
The test system of assay [9] is LVDr + T184L HBV. Described as above. It counts as cell-based. Conditions: Hepatitis B virus, averaged from 2 isolates, read-out: ETV EC50, Average ± SD (Range). Here is the method:
as §4, §1

The test system of assay [10] is LVDr L180M + M204V HBV. The assay is described as above. The following applies: Hepatitis B virus. The format is cell-based. Here is the method:
as §4, §1

The test system of assay [11] is LVDr L180M + M204V HBV. Further details: method as in PMID 17267485, PMID 18362040. The following applies: cited from earlier work.

For orientation: EC50 means the midpoint of the concentration-response curve. Regarding `C=C1[C@H](CO)[C@@H](O)C[C@@H]1n1cnc2c(=O)[nH]c(N)nc21` [ETV, Entecavir], the “removal of ETV incorporated into HBV DNA using pyrophosphorolysis” value in assay [1] is given as “unable to demonstrate removal”. Also, in assay [2], the “level of ETVr in culture” value is reported as more than 200 fold. In assay [3], the “strand-specific ETV EC50, first (minus) strand versus second (plus) strand” value is “increased relative to that for the second (plus) strand”. Also, in [4], the “strand-specific ETV EC50, both strands of HBV DNA compared” value was “nearly equivalent levels of susceptibility”. The 50% effective concentration (EC50) in assay [5] (Cell culture, Wildtype HBV, single isolate, read-out: ETV EC50, Average ± SD (Range)) was 3 ± 1.5 nM; in assay [5] (panel of 76 wildtype isolates, read-out: average ETV EC50), 3.4 nM; in assay [6], 1210 nM; in assay [7], 3080 nM; in assay [8] it was more than 4000 nM; in [9], 738 ± 119 nM. Further, the 50% effective concentration (EC50) came to 30.4 ± 21.6 nM in [10] (Cell culture, LVDr L180M + M204V, single isolate, read-out: ETV EC50, Average ± SD (Range)) and 31.1 nM in assay [10] (panel of 15 LVDr isolates, read-out: average ETV EC50). Moreover, the “cross-resistance to ETV in culture” value in assay [11] is given as “approximately 8 fold”.
